{"source": "ChEMBL document CHEMBL1201862", "about": "“PubChem BioAssay data set” (2004)", "key": {"[1]": {"target": "E3 ubiquitin-protein ligase Mdm2 (Homo sapiens, UniProt Q00987)", "sequence (Q00987 whole entry)": "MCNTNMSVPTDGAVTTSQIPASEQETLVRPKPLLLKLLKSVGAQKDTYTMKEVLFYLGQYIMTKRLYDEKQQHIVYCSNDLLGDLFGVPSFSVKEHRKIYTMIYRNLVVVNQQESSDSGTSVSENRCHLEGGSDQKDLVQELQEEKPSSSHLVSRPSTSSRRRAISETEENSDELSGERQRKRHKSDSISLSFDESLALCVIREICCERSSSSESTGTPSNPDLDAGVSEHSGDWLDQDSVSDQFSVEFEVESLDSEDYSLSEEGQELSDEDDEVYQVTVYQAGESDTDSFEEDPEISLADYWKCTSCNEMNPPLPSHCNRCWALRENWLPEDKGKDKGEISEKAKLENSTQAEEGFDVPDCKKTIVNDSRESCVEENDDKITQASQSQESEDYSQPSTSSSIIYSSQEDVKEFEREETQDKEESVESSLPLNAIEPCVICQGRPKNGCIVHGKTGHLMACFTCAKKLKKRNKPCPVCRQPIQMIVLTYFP", "test": "enhancers of MDM2-luciferase reporter signal, concentration-effect titration, project on inhibitors of MDM2 ubiquitin ligase, cellular assay, luminescent readout, 384-well plate format (AID 1394);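 note: MDM2 E3 inhibitors raise luminescence so EC50 is for signal enhancement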", "format": "functional"}, "[2]": {"target": "72 kDa type IV collagenase (Homo sapiens, UniProt P08253)", "test": "Dose Response validation of uHTS RPN11 inhibitor hits using a MMP-2 Fluorescence assay.", "format": "functional"}, "H9c2": {"tested_on": "H9c2", "test": "cells", "format": "functional, cell-based", "settings": "Rattus norvegicus, H9c2, Myocardium"}, "Prothrombin": {"target": "Prothrombin (Bos taurus, UniProt P00735)", "test": "thrombin inhibition, dose response, biochemical, fluorescence polarization, uHTS hits (AID 602369)", "format": "functional"}, "[3]": {"target": "26S proteasome non-ATPase regulatory subunit 14 (Homo sapiens, UniProt O00487)", "test": "inhibition of proteasome subunit RPN11 – biochemical, fluorescence polarization, uHTS hits, confirmation (AID 602368)", "format": "functional"}, "[4]": {"target": "Peroxisome proliferator-activated receptor gamma/Nuclear receptor coactivator 2 (Homo sapiens, UniProt P37231)", "sequence (P37231 whole entry)": "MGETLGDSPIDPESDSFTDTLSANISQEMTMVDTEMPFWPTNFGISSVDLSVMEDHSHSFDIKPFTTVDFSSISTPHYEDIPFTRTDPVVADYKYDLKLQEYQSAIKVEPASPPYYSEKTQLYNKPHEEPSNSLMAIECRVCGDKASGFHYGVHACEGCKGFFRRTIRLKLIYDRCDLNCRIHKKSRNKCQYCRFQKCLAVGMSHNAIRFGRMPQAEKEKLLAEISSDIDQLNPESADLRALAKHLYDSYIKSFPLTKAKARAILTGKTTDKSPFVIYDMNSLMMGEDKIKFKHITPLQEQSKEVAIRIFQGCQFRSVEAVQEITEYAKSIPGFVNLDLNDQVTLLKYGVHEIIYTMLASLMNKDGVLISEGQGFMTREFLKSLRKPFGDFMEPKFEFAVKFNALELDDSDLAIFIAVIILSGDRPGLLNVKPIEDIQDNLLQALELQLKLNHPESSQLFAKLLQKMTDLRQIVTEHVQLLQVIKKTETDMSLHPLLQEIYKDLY", "sequence (Q15596 whole entry, further chain)": "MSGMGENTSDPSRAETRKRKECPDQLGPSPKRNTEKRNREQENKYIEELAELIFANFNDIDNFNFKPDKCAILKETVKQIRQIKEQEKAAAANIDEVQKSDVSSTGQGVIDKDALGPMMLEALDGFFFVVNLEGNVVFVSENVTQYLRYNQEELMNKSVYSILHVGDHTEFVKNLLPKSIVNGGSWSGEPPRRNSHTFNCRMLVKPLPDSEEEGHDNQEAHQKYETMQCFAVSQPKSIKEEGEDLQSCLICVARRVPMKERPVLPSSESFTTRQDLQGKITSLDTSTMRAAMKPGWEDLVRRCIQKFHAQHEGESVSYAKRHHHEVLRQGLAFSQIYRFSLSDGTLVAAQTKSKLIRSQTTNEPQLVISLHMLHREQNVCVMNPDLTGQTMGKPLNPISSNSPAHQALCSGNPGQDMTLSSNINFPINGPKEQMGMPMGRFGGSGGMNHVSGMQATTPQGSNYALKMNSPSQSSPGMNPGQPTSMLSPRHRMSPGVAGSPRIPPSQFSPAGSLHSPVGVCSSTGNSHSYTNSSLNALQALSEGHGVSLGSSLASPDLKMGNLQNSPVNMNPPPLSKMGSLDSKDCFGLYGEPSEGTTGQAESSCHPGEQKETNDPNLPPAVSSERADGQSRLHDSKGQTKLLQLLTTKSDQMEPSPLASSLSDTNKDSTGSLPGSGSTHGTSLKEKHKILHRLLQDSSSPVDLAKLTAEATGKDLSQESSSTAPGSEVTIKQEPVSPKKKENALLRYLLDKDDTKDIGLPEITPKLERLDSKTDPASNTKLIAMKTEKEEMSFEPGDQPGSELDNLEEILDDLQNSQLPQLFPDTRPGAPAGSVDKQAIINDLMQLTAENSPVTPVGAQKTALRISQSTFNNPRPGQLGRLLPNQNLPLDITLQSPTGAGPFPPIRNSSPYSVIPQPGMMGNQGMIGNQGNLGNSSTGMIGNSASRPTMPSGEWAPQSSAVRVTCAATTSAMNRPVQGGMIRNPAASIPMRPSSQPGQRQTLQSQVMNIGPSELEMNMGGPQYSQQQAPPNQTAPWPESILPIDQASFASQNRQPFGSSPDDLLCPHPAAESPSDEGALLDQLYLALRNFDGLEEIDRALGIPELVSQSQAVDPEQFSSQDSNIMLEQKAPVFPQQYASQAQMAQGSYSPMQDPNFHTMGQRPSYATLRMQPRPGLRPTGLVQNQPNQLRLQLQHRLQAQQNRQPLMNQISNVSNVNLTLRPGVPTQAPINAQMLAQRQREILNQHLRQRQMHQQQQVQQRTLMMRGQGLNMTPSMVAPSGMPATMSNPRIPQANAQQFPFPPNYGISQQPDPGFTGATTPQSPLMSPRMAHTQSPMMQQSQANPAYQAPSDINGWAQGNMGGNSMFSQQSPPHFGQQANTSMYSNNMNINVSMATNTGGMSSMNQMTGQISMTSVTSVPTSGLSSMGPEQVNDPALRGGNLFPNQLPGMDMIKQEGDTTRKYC", "format": "functional"}, "[5]": {"target": "Peroxisome proliferator-activated receptor gamma/Nuclear receptor coactivator 1 (Homo sapiens, UniProt P37231)", "sequence (P37231 whole entry)": "as the sequence (P37231 whole entry) above", "sequence (Q15788 whole entry, further chain)": "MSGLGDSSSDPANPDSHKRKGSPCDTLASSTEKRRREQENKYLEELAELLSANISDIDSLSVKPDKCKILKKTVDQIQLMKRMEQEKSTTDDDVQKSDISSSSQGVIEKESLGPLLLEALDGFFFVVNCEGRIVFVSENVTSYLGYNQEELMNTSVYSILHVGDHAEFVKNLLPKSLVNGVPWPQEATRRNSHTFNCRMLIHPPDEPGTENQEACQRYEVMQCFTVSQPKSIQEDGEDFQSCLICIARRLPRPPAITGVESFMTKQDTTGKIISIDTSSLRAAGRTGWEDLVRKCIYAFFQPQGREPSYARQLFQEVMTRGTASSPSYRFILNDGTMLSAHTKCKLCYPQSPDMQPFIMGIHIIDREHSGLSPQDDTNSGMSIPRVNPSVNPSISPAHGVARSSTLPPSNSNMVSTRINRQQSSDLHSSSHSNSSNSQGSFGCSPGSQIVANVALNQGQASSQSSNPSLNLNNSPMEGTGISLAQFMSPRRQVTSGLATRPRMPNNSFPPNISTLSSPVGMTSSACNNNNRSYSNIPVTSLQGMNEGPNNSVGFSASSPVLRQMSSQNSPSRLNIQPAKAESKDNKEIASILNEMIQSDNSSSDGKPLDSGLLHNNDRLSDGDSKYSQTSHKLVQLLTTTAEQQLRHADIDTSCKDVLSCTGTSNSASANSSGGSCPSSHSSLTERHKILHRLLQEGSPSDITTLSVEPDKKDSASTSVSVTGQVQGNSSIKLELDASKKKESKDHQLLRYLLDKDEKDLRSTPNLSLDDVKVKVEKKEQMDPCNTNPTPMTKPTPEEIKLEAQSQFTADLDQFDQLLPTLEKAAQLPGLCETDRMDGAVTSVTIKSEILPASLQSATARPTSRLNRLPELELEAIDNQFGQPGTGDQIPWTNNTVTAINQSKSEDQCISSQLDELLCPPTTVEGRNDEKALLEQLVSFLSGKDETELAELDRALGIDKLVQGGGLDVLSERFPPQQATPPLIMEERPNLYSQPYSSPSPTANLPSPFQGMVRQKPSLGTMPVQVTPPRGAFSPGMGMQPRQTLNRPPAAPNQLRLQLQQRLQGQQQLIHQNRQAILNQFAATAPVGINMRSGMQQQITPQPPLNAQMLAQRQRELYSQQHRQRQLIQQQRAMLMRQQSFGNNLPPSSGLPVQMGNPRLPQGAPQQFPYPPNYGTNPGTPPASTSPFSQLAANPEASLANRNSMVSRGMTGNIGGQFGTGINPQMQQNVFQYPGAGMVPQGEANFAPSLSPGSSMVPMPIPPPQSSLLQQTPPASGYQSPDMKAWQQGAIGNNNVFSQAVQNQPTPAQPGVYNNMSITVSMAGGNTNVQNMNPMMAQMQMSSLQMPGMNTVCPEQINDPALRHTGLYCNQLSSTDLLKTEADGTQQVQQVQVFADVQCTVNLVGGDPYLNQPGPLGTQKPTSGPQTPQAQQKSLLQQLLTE", "format": "functional"}, "[6]": {"target": "Peroxisome proliferator-activated receptor gamma/Nuclear receptor coactivator 3 (Homo sapiens, UniProt P37231)", "format": "functional"}, "Estrogen receptor beta": {"target": "Estrogen receptor beta (Homo sapiens, UniProt Q92731)"}, "Estrogen receptor": {"target": "T1, Estrogen receptor (Homo sapiens, UniProt P03372)", "T1 sequence (P03372 whole entry)": "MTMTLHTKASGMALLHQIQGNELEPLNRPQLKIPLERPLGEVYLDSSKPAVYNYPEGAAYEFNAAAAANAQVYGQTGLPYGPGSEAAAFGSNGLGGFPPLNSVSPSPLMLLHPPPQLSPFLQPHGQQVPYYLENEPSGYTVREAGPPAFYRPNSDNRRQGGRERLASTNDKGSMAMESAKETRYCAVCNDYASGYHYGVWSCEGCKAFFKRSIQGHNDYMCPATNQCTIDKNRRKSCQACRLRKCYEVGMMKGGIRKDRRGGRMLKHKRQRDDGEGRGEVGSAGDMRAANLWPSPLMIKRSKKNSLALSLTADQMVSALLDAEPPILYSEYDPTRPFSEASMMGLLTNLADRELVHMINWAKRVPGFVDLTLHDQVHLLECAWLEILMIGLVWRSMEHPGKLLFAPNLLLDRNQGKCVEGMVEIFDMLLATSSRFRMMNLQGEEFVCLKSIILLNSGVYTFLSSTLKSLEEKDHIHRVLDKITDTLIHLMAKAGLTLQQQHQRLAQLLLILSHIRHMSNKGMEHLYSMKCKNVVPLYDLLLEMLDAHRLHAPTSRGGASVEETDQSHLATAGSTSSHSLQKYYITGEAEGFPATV"}, "[7]": {"target": "G-protein coupled receptor 35 (Homo sapiens, UniProt Q9HC97)", "test": "GPR35 antagonists blocking zaprinast-driven arrestin recruitment, primary screen, imaging, U2OS, beta-arrestin-GFP, zaprinast agonist (AID 2058);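 note: antagonist potency meaning inhibition of agonist-induced arrestin redistribution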", "format": "functional"}, "[8]": {"target": "Bifunctional protein GlmU (Mycobacterium tuberculosis, UniProt P9WMN3)", "sequence (P9WMN3 whole entry)": "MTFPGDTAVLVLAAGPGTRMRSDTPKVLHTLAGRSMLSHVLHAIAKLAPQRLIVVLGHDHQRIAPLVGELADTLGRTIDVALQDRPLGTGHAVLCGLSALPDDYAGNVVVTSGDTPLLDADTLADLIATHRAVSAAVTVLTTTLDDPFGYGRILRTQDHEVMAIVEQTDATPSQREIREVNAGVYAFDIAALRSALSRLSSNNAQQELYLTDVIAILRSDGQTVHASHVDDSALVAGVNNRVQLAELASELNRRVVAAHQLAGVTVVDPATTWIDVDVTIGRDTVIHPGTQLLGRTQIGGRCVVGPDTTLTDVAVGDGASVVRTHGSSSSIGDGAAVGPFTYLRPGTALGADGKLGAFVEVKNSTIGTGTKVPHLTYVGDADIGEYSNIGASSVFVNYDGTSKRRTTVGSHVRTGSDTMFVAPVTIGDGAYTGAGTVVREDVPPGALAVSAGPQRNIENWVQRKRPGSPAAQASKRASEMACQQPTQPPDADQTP", "test": "Inhibitors of Mycobacterial Glucosamine-1-phosphate acetyl transferase (GlmU). Secondary screen.", "parameters": "species or system Mycobacterium tuberculosis H37Rv"}, "[9]": {"target": "G-protein coupled receptor 55 (Homo sapiens, UniProt Q9Y2T6)", "test": "GPR55 antagonists blocking LPI-driven arrestin recruitment, primary screen, imaging, U2OS, beta-arrestin-GFP, LPI agonist (AID 2013);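 note: antagonist potency measured as reduced agonist-driven arrestin aggregation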", "format": "functional"}, "[10]": {"target": "Lysosomal acid glucosylceramidase (Homo sapiens, UniProt P04062)", "test": "Dose response cell-based high throughput screening assay to identify enhancers of beta-glucosidase activity. [Related pubchem assays: 784 ]", "format": "functional"}, "Streptokinase A": {"target": "T2, Streptokinase A (Streptococcus pyogenes serotype M1, UniProt P10520)", "T2 sequence (P10520 whole entry)": "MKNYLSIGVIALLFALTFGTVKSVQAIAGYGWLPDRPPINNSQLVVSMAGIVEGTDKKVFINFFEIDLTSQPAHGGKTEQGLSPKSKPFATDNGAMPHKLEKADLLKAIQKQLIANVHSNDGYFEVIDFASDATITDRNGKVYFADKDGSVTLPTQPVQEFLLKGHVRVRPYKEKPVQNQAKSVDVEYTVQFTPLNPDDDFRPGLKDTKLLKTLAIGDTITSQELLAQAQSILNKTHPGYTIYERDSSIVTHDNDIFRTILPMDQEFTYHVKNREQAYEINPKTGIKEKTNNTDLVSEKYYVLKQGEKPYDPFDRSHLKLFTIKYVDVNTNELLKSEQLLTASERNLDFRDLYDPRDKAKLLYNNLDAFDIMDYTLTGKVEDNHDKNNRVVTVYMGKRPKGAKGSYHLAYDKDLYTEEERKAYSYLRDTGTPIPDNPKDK", "test": "S. pyogenes streptokinase expression inhibitors, potency, dose response, plasminogen activation absorbance, OD405 (AID 1914);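 note: secreted streptokinase activity via plasminogen activation per viability signal from cell pellet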", "format": "functional, Streptococcus pyogenes M1 GAS"}, "[11]": {"test": "cytotoxicity toward NIH3T3 fibroblasts, dose response, counter-screen, cell-based, ATP luminescence, mouse fibroblasts (AID 2010);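 note: cells exposed to compound for about 90 hours before reading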", "format": "functional"}, "[12]": {"tested_on": "Streptococcus sp. 'group A'", "test": "growth inhibition of control SK(-) GAS strain, dose response, counter-screen for streptokinase expression inhibitor project, luminescence, kanamycin, BacTiterGlo, confirmation (AID 1900)", "format": "functional, organism-based"}, "[13]": {"test": "inhibitors of intracellular T. cruzi replication, confirmation, NIH3T3 host cells, beta-gal luminescence (AID 2044);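 note: luminescent beta-galactosidase reporter signal from transgenic T. cruzi replicating inside host cells; inhibitors lower the luminescence signal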", "format": "functional, cell-based"}, "Vero": {"tested_on": "Vero", "test": "cells", "format": "functional", "settings": "Chlorocebus sabaeus"}, "Streptococcus": {"tested_on": "Streptococcus", "test": "Group A Streptococcus viability loss, dose response, counter-screen for streptokinase expression inhibitor project, luminescence, BacTiterGlo (AID 1915);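 note: potency for reduction of bacterial viability or growth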", "format": "functional, organism-based"}, "[14]": {"test": "growth suppression of beta-catenin-knockout colon cells, dose response, cell-based, HCT116, human colon tumor (AID 1045);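 note: HCT116 colon tumor cells with beta catenin knocked out; cells exposed to compound for 60 hours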", "format": "functional"}, "[15]": {"test": "growth suppression of PTEN-null colon cells, dose response, cell-based, HCT116 PTEN knockout (AID 1047);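 note: HCT116 colon tumor cells with PTEN knocked out; cells exposed to compound for 60 hours before readout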", "format": "functional"}, "Leucine aminopeptidase": {"target": "T3, Leucine aminopeptidase (Plasmodium falciparum 3D7, UniProt Q8IL11)", "T3 sequence (Q8IL11 whole entry)": "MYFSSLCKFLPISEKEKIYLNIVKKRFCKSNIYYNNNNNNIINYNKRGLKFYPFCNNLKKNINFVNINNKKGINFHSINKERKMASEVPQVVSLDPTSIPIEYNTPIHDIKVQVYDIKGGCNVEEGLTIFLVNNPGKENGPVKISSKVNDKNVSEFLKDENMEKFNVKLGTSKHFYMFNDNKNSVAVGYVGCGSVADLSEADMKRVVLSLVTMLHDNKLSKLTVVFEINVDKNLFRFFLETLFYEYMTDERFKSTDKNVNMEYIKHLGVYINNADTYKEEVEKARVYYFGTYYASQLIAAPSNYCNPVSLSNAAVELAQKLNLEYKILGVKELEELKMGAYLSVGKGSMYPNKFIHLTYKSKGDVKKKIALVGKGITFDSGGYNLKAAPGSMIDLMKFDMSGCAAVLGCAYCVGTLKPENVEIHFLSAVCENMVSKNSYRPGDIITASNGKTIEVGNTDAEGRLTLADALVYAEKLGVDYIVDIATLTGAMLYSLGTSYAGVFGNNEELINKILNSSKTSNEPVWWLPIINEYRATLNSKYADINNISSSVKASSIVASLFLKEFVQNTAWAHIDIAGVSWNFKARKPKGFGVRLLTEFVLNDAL", "test": "P. falciparum M17LAP inhibitors, primary screen, biochemical, fluorogenic H-Leu-NHMec substrate, 1536-well (AID 1619)", "format": "functional"}}, "note": "Activity calls are given as the source filed them."}
{"smiles": "COc1cccc(/C=N/NC(=O)c2[nH]c(C)c(C(=O)N/N=C/c3cccc(OC)c3)c2C)c1", "values": [{"measurement": "EC50", "setting": "[1]", "value": "6.15 µM (not active)"}, {"measurement": "IC50", "setting": "[2]", "value": "> 100 µM (inactive)"}, {"measurement": "IC50", "setting": "H9c2", "value": "10.6 µM (active)"}, {"measurement": "IC50", "setting": "Prothrombin", "value": "> 100 µM (inactive)"}, {"measurement": "IC50", "setting": "[3]", "value": "1.41 µM (active)"}]}
{"smiles": "COc1ccccc1C(=O)Nc1ccccn1", "values": [{"measurement": "EC50", "setting": "[4]", "value": "> 79.4 µM (not active)"}, {"measurement": "EC50", "setting": "[5]", "value": "> 79.4 µM (not active)"}, {"measurement": "EC50", "setting": "[6]", "value": "> 79.4 µM (not active)"}]}
{"smiles": "Cc1ccc(S(=O)(=O)Cc2ccc(C(=O)N3CCC4(CC3)OCCO4)o2)cc1", "values": [{"measurement": "IC50", "setting": "Estrogen receptor beta", "value": "12.8 µM (active)"}, {"measurement": "IC50", "setting": "Estrogen receptor", "value": "43 µM (not active)"}]}
{"smiles": "COc1ccc(Nc2nc(C(=O)N3CCc4ccccc4C3)cs2)cc1", "values": [{"measurement": "EC50", "setting": "[1]", "value": "12.3 µM (not active)"}]}
{"smiles": "O=C1C=CC(=O)N1CCCCCCN1C(=O)C=CC1=O", "values": [{"measurement": "IC50", "setting": "[7]", "value": "6.23 µM (active)"}, {"measurement": "IC50", "setting": "[8]", "value": "118 µM (active)"}, {"measurement": "IC50", "setting": "[9]", "value": "9.79 µM (active)"}]}
{"smiles": "CC(C)Cn1c(N)c(C(=O)NCc2cccs2)c2nc3ccccc3nc21", "values": [{"measurement": "EC50", "setting": "[10]", "value": "2.49 µM (active)"}, {"measurement": "EC50", "setting": "Streptokinase A", "value": "30.2 µM (active)"}, {"measurement": "EC50", "setting": "[11]", "value": "> 60 µM (not active)"}, {"measurement": "EC50", "setting": "[12]", "value": "3.56 µM (active)"}, {"measurement": "EC50", "setting": "[13]", "value": "2.17 µM (active)"}, {"measurement": "CC50", "setting": "Vero", "value": "14 µM (active)"}, {"measurement": "EC50", "setting": "Streptococcus", "value": "7.88 µM (active)"}, {"measurement": "EC50", "setting": "[14]", "value": "47 µM (active)"}, {"measurement": "EC50", "setting": "[15]", "value": "36 µM (active)"}]}
{"smiles": "O=C(O)c1cccc(-c2ccc(/C=N/NC(=O)c3cccnc3)o2)c1", "values": [{"measurement": "IC50", "setting": "[8]", "value": "185 µM (active)"}, {"measurement": "IC50", "setting": "Leucine aminopeptidase", "value": "37.5 µM (active)"}]}
